Molecules are shown by their SMILES.

The target in data set [1] is T1, HIV-integrase (Human immunodeficiency virus type 1 group M subtype B, UniProt P04585).
T1 construct: 0.26 ng of recombinant integrase was incubated with the beads for 90 min at 37 C
As to the kind of experiment: HIV integrase SPA integration assay (biotin-labeled substrate DNA on streptavidin SPA beads, P33-labeled target DNA). In kind it is biochemical. To be noted: percent inhibition of HIV-integrase in the presence of 20 μM of compound. The procedure:
For each reaction, 5 pmole of biotin labeled substrate DNA was bound to 100 ug of Streptavidin coated PVT SPA beads (Amersham Pharmacia Biotech). 0.26 ng of recombinant integrase was incubated with the beads for 90 min at 37 C. Unbound enzyme was removed by washing the complex followed by addition of inhibitors and 0.1 fmol of P33 labeled target DNA. Reaction was stopped by adding EDTA to a final concentration of 10 mM. Samples were counted in TopCountNXT (Packard) and the CPM was used as a measure of integration. Reaction condition was as described in A. Engelman and R. Craigie, J. Virol. 69, 5908–5911 (1995). The sequences of substrate and target DNA were described in Nucleic Acid Research 22, 1121–1122 (1994).

Turning to `CON(Cc1ccc(F)cc1)C(=O)C1=C(O)C(=O)N(C)C1`, the melting point (as a rule, the temperature of the solid-liquid transition) was 125 °C (dec.).

`CN1CC(C(=O)N(C)Cc2ccc(C(F)(F)F)cc2)=C(O)C1=O`: the melting point is 126 to 128 °C.

Regarding `CON(Cc1ccc(C(F)(F)F)cc1)C(=O)C1=C(O)C(=O)N(C)C1`, the melting point is 145 °C (dec.).

As to `CON(Cc1ccc(C(F)(F)F)cc1)C(=O)C1=C(O)C(=O)N(CCN2CCOCC2)C1`, the melting point was 119 °C (dec.).

Take `CON(Cc1ccc(F)cc1C(F)(F)F)C(=O)C1=C(O)C(=O)N(C)C1`: the melting point was 167 °C (dec.).

`CN1CC(C(=O)N(C)CCCc2ccc(F)cc2)=C(O)C1=O`: the melting point is 129 °C (dec.).

Molecule `CON(CCCc1ccc(Cl)c(Cl)c1)C(=O)C1=C(O)C(=O)N(C)C1` came in with a melting point of 106 to 108 °C.

`CN(Cc1ccc(Cl)c(Cl)c1)C(=O)C1=C(O)C(=O)N(C2CC2)C1` [Compound 14, 1-Cyclopropyl-4-hydroxy-5-oxo-2,5-dihydro-1H-pyrrole-3-carboxylic acid (3,4-dichloro-benzyl)-methyl-amide] displayed a melting point of 163 to 164 °C. The inhibition (in general, the percentage by which the read-out fell short of the control) at 20 µM in data set [1] is 99.7%.

As to `CN(Cc1ccc(Cl)c(Cl)c1)C(=O)C1=C(O)C(=O)N(CCC(=O)O)C1` [Compound 18, 3-[4-[(3,4-dichloro-benzyl)-methyl-carbamoyl]-3-hydroxy-2-oxo-2,5-dihydro-pyrrol-1-yl]-propionic acid], the melting point was 183 to 184 °C. For the same molecule, the inhibition at 20 µM in data set [1] amounted to 99.9%.

In turn, `CN(Cc1ccc(Cl)c(Cl)c1)C(=O)C1=C(O)C(=O)N(CC(=O)O)C1` [Compound 20, {4-[(3,4-Dichloro-benzyl)-methyl-carbamoyl]-3-hydroxy-2-oxo-2,5-dihydro-pyrrol-1-yl}-acetic acid] came in with a melting point of 178 to 180 °C. Besides, the inhibition at 20 µM in data set [1] was determined as 99.9%.

The molecule `CON(Cc1ccc(Cl)c(Cl)c1)C(=O)C1=C(O)C(=O)N(C)C1` [Compound 47, 4-Hydroxy-1-methyl-5-oxo-2,5-dihydro-1H-pyrrole-3-carboxylic acid (3,4-dichloro-benzyl)-methoxy-amide] gave a melting point of 149 °C. For the same molecule, the inhibition at 20 µM in data set [1] is 99.9%.

As to `CON(Cc1cccc(F)c1)C(=O)C1=C(O)C(=O)N(C)C1` [Compound 49, 4-Hydroxy-1-methyl-5-oxo-2,5-dihydro-1H-pyrrole-3-carboxylic acid (3-fluoro-benzyl)-methoxy-amide], the melting point was 119 °C (dec.). In addition, the inhibition at 20 µM in data set [1] is 98.5%.

In the case of `CON(Cc1ccccc1F)C(=O)C1=C(O)C(=O)N(C)C1` [Compound 50, 4-Hydroxy-1-methyl-5-oxo-2,5-dihydro-1H-pyrrole-3-carboxylic acid (2-fluoro-benzyl)-methoxy-amide], the melting point is 147 °C (dec.). For the same molecule, the inhibition at 20 µM in data set [1] was 92%.

Consider `CON(Cc1ccc(Cl)cc1)C(=O)C1=C(O)C(=O)N(C)C1` [Compound 51, 4-Hydroxy-1-methyl-5-oxo-2,5-dihydro-1H-pyrrole-3-carboxylic acid (4-chloro-benzyl)-methoxy-amide], for which the melting point is 165 °C (dec.). Besides, the inhibition at 20 µM in data set [1] is 99.9%.

Consider `CON(CCc1ccc(F)cc1)C(=O)C1=C(O)C(=O)N(C)C1` [Compound 52, 4-Hydroxy-1-methyl-5-oxo-2,5-dihydro-1H-pyrrole-3-carboxylic acid [2-(4-fluoro-phenyl)-ethyl]-methoxy-amide], for which the melting point was 157 °C (dec.). Besides, the inhibition at 20 µM in data set [1] stood at 86%.

`CCON(Cc1ccc(F)cc1)C(=O)C1=C(O)C(=O)N(C)C1` [Compound 53, 4-Hydroxy-1-methyl-5-oxo-2,5-dihydro-1H-pyrrole-3-carboxylic acid ethoxy-(4-fluoro-benzyl)-amide]: the melting point is 113 to 114 °C. Besides, the inhibition at 20 µM in data set [1] was 99%.

`CON(Cc1ccc(F)c(F)c1)C(=O)C1=C(O)C(=O)N(C)C1` [Compound 54, 4-Hydroxy-1-methyl-5-oxo-2,5-dihydro-1H-pyrrole-3-carboxylic acid (3,4-difluoro-benzyl)-methoxy-amide]: the melting point lay in the range of 146 to 147 °C. In data set [1], the inhibition at 20 µM was 99.9%.

The molecule `COc1ccc(CN(OC)C(=O)C2=C(O)C(=O)N(C)C2)cc1` [Compound 55, 4-Hydroxy-1-methyl-5-oxo-2,5-dihydro-1H-pyrrole-3-carboxylic acid methoxy-(4-methoxy-benzyl)-amide] came in with a melting point of 135 to 137 °C. Moreover, the inhibition at 20 µM in data set [1] stood at 99.9%.

Molecule `CON(Cc1ccccc1C)C(=O)C1=C(O)C(=O)N(C)C1` [Compound 56, 4-Hydroxy-1-methyl-5-oxo-2,5-dihydro-1H-pyrrole-3-carboxylic acid methoxy-(2-methyl-benzyl)-amide] showed a melting point of 153 to 154 °C. Moreover, the inhibition at 20 µM in data set [1] worked out at 88%.

For the molecule `CON(Cc1ccc(F)c(Br)c1)C(=O)C1=C(O)C(=O)N(C)C1` [Compound 57, 4-Hydroxy-1-methyl-5-oxo-2,5-dihydro-1H-pyrrole-3-carboxylic acid (3-bromo-4-fluoro-benzyl)-methoxy-amide], the melting point was 154 to 157 °C (dec.). Further, in data set [1], the inhibition at 20 µM was 99.9%.

Turning to `CC(C)CON(Cc1ccc(F)cc1)C(=O)C1=C(O)C(=O)N(C)C1` [Compound 58, 4-Hydroxy-1-methyl-5-oxo-2,5-dihydro-1H-pyrrole-3-carboxylic acid (4-fluoro-benzyl)-isobutoxy-amide], the melting point lay in the range of 96 to 97 °C. In addition, in data set [1], the inhibition at 20 µM was 99.5%.

`CON(Cc1ccc(C)cc1)C(=O)C1=C(O)C(=O)N(C)C1` [Compound 59, 4-Hydroxy-1-methyl-5-oxo-2,5-dihydro-1H-pyrrole-3-carboxylic acid methoxy-(4-methyl-benzyl)-amide]: the melting point was in the range of 150 to 152 °C. Moreover, the inhibition at 20 µM in data set [1] is 99.9%.

As to `CON(Cc1ccc(C#N)cc1)C(=O)C1=C(O)C(=O)N(C)C1` [Compound 62, 4-Hydroxy-1-methyl-5-oxo-2,5-dihydro-1H-pyrrole-3-carboxylic acid (4-cyano-benzyl)-methoxy-amide], the melting point was 161 °C (dec.). Further, the inhibition at 20 µM in data set [1] was 97.7%.

`CON(Cc1ccc(NC(C)=O)cc1)C(=O)C1=C(O)C(=O)N(C)C1` [Compound 63, 4-Hydroxy-1-methyl-5-oxo-2,5-dihydro-1H-pyrrole-3-carboxylic acid (4-acetylamino-benzyl)-methoxy-amide] returned a melting point of 110 °C. The inhibition at 20 µM in data set [1] worked out at 12%.

As to `CON(Cc1ccc(F)c(C)c1)C(=O)C1=C(O)C(=O)N(C)C1` [Compound 64, 4-Hydroxy-1-methyl-5-oxo-2,5-dihydro-1H-pyrrole-3-carboxylic acid (4-fluoro-3-methyl-benzyl)-methoxy-amide], the melting point was in the range of 160 to 164 °C. Besides, the inhibition at 20 µM in data set [1] came out at 99.7%.

The molecule `CON(Cc1ccc(C)c(F)c1)C(=O)C1=C(O)C(=O)N(C)C1` [Compound 65, 4-Hydroxy-1-methyl-5-oxo-2,5-dihydro-1H-pyrrole-3-carboxylic acid (3-fluoro-4-methyl-benzyl)-methoxy-amide] returned a melting point of 145 °C. Moreover, the inhibition at 20 µM in data set [1] was found to be 99.9%.

`CON(Cc1ccc(C(=O)O)cc1)C(=O)C1=C(O)C(=O)N(C)C1` [Compound 68, 4-{[(4-Hydroxy-1-methyl-5-oxo-2,5-dihydro-1H-pyrrole-3-carbonyl)-methoxy-amino]-methyl}-benzoic acid] came in with a melting point of 196 to 197 °C. Besides, the inhibition at 20 µM in data set [1] worked out at 12%.

Molecule `CON(C(=O)C1=C(O)C(=O)N(C)C1)C(C)c1ccc(F)cc1` (centres unmarked) [Compound 69, 4-Hydroxy-1-methyl-5-oxo-2,5-dihydro-1H-pyrrole-3-carboxylic acid [1-(4-fluoro-phenyl)-ethyl]-methoxy-amide] gave a melting point of 136 to 138 °C. In addition, in data set [1], the inhibition at 20 µM amounted to 97%.

With `CN1CC(C(=O)N(Cc2ccc(F)cc2)OCC(=O)OC(C)(C)C)=C(O)C1=O` [Compound 70], the melting point was 128 to 130 °C. The inhibition at 20 µM in data set [1] turned out to be 99.8%.

In turn, `CN1CC(C(=O)N(Cc2ccc(F)cc2)OCC(=O)O)=C(O)C1=O` [Compound 71, [(4-Fluoro-benzyl)-(4-hydroxy-1-methyl-5-oxo-2,5-dihydro-1H-pyrrole-3-carbonyl)-aminooxy]-acetic acid] gave a melting point of 147 to 150 °C. Also, in data set [1], the inhibition at 20 µM turned out to be 99.9%.

Turning to `CN1CC(C(=O)N(Cc2ccc(F)cc2)Cc2ccc(F)cc2)=C(O)C1=O` [Compound 76, 4-Hydroxy-1-methyl-5-oxo-2,5-dihydro-1H-pyrrole-3-carboxylic acid bis-(4-fluoro-benzyl)-amide], the inhibition at 20 µM in data set [1] stood at 96%.

Take `CN1CC(C(=O)N(Cc2ccc(Cl)cc2)Cc2ccc(Cl)c(Cl)c2)=C(O)C1=O` [Compound 77, 4-Hydroxy-1-methyl-5-oxo-2,5-dihydro-1H-pyrrole-3-carboxylic acid (4-chloro-benzyl)-(3,4-dichloro-benzyl)-amide]: the inhibition at 20 µM in data set [1] is 99.8%.

On to `CN1CC(C(=O)N(C)Cc2ccccc2)=C(O)C1=O` [Compound 79, 4-Hydroxy-1-methyl-5-oxo-2,5-dihydro-1H-pyrrole-3-carboxylic acid benzyl-methyl-amide], for which the inhibition at 20 µM in data set [1] came out at 92.4%.

Source of the values: patent US7109186B2 (Bristol-Myers Squibb Company, priority 2002, dated 2006).
